Data: patent US7071168B2, “Anti-cancer compounds and methods related thereto” (The Regents of the University of Colorado, priority 1998, dated 2006)

Columns and labels:
[1] = biological target: T1, cloned human bradykinin B2 receptors (Homo sapiens, UniProt P30411); assay: Anti-bradykinin activity on cloned human B2 receptors (CHO cells, Cytosensor microphysiometer); format: cell-based; conditions: cloned human B2 receptors; pD2 for bradykinin is 11; higher numbers indicate higher potency
T1 sequence (P30411 1-391): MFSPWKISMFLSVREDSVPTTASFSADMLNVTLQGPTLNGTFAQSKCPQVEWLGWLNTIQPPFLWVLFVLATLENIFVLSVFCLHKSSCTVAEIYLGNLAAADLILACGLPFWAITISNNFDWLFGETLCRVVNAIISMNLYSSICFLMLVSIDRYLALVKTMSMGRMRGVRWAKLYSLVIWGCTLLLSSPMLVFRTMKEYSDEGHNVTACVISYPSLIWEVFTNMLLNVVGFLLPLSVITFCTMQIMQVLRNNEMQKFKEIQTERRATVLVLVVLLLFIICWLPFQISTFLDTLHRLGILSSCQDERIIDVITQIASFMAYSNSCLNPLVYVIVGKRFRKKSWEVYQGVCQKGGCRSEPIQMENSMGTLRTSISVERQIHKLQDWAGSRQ
Method: In general, Anti-bradykinin activity was determined by the classical guinea pig ileum assay and on Chinese hamster ovary (CHO) cells expressing cloned human bradykinin B2 receptors. Anti-tumor activity was determined on cultured human cancer cell lines using the standard tetrazolium (MTT) assay.
Chinese hamster ovary cells containing cloned and expressed human bradykinin B2 receptors were grown in cell cups of the Cytosensor microphysiometer in Ham's F-12 medium supplemented with sodium pyruvate and 10% FBS (Gibco 11765-054). For assay the cells were transferred to Ham's F-12 without bicarbonate or serum (Gibco 21700-075) and placed in the Cytosensor. Concentration-response curves were constructed to bradykinin in the presence or absence of new compounds.

[2] = test system: SCLC strain SHP-77; assay: Colorimetric tetrazolium (MTT) assay for cell survival, SCLC strain SHP-77; format: cell-based, human; conditions: SCLC strain SHP-77 in vitro
Procedure, shortened: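 MTT assay: cells seeded overnight, treated in triplicate across a concentration range for 4 days at 37 °C, 5% CO2. On day 5, MTT was added for 4 h; formazan was dissolved in acidified isopropanol and absorbance read.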

[3] = test system: bradykinin response of isolated guinea pig ileum; assay: Anti-bradykinin activity on isolated guinea pig ileum; conditions: isolated guinea pig ileum; pD2 of bradykinin is 7.4; higher numbers indicate higher potency
Procedure, shortened: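 Bradykinin concentration-effect curves were run in the absence and presence of compound. Tissue: 25 mm terminal ileum from male Hartley guinea pigs fasted overnight, held at 1 g tension in O2/CO2-bubbled Krebs' solution after 1 h equilibration.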

HUMAN: pA2 for bradykinin antagonist potency on cloned human B2 receptors [1] | Structure (SMILES) | MTT: ED50 for killing of SCLC strain SHP-77 in vitro [2] [µM] | GPI: pA2 for bradykinin antagonist activity on isolated guinea pig ileum [3]
10.3 | CC1(C)CC(NC(=O)C(NC(=O)C=Cc2ccc(NC(=O)CCCCCCCCCCC(=O)Nc3ccc(C=CC(=O)NC(C(=O)NC4CC(C)(C)NC(C)(C)C4)C4Cc5ccccc5C4)cc3)cc2)C2Cc3ccccc3C2)CC(C)(C)N1 (stereo not drawn) [M294] | 1.8 | Inact
Inact | CC1(C)CC(NC(=O)[C@H](Cc2ccc3ccccc3c2)NC(=O)C=Cc2ccc(NC(=O)CCCCCCCCCCC(=O)Nc3ccc(C=CC(=O)N[C@@H](Cc4ccc5ccccc5c4)C(=O)NC4CC(C)(C)NC(C)(C)C4)cc3)cc2)CC(C)(C)N1 [M310] | 1.2 | 5.1
11.5 | O=C(C=Cc1cccnc1)NC(Cc1ccc2ccccc2c1)C(=O)NC1CCCCC1 (stereo not drawn) [M408] | 22 | 4.6
10.3 | CC1(C)CC(NC(=O)C(Cc2csc3ccccc23)NC(=O)C=Cc2c(F)c(F)c(F)c(F)c2F)CC(C)(C)N1 (stereo not drawn) [M418] | 3.8 | 7.0
11.3 | CC1(C)CC(NC(=O)[C@H](Cc2csc3ccccc23)NC(=O)CCCCCCCCCCC(=O)N[C@@H](Cc2csc3ccccc23)C(=O)NC2CC(C)(C)NC(C)(C)C2)CC(C)(C)N1 [M430] | 18 | 5.3
10 | CC1(C)CC(NC(=O)C(Cc2cccnc2)NC(=O)C=Cc2c(F)c(F)c(F)c(F)c2F)CC(C)(C)N1 (stereo not drawn) [M438] | 26 | 4.8
Inact | Cc1ccc(CSCC(NC(=O)C=Cc2c(F)c(F)c(F)c(F)c2F)C(=O)NC2CC(C)(C)NC(C)(C)C2)cc1 (stereo not drawn) [M456] | 4.7 | 5.3
Inact | CN1CCN(NC(=O)C(Cc2ccc3ccccc3c2)NC(=O)C=Cc2c(F)c(F)c(F)c(F)c2F)CC1 (stereo not drawn) [M470] | 11 | 5.2
Inact | CN1CCN(NC(=O)C(Cc2ccc3ccccc3c2)NC(=O)C=Cc2ccc(N(C)C)cc2)CC1 (stereo not drawn) [M472] | 25 | 5.3
Inact | CC1(C)CC(NC(=O)C(Cc2csc3ccccc23)NC(=O)C=Cc2cccs2)CC(C)(C)N1 (stereo not drawn) [M476] | 15 | 4.6
Inact | CN(C)c1ccc(C=CC(=O)NC(Cc2ccc3ccccc3c2)C(=O)N2CCSCC2)cc1 (stereo not drawn) [M478] | 30 | 5.1
Inact | CN1CCN(NC(=O)C(Cc2ccc3ccccc3c2)NC(=O)c2cccc(NC(=O)C=Cc3c(F)c(F)c(F)c(F)c3F)c2)CC1 (stereo not drawn) [M492] | 45 | 5.1
Inact | CN(C)CCCNC(=O)C(Cc1ccc2ccccc2c1)NC(=O)C=Cc1c(F)c(F)c(F)c(F)c1F (stereo not drawn) [M526] | 10 | 5.4
9.5 | CN(C)c1ccc(C=CC(=O)NC(Cc2ccc(OCc3c(Cl)cccc3Cl)cc2)C(=O)NC2CC(C)(C)NC(C)(C)C2)cc1 (stereo not drawn) [M582] | 3 | 5.4
